Experimental findings from patent US6303596A, “Use of taurolidine for treatment of leukemias” (priority 2000, dated 2001) are described below.

The subject of one assay is tissue factor (TF). Briefly: LPS-induced tissue factor (TF) expression in MM6 cells, ELISA. The class given is cell-based, human. The following applies: for inhibition of LPS-induced TF expression: 4 h. The procedure: FIG. 2A represents MM6 cells; FIG. 2B represents PBMC. The cells were induced with LPS (hatched bars: 100 ng/ml LPS in RPMI supplemented with 10% BCS (RPMI+10% BCS); solid bars: 10 ng/ml in AIM-V+0.01% BCS) in the presence of varying concentrations of taurolidine,or with a dilution of the vehicle equivalent to that given to cells receiving 100 μg/ml taurolidine. After four hours, cells were collected and lysates were prepared for TF ELISA. Data are expressed as percent of TF antigen measured in cells treated with LPS alone (no taurolidine or vehicle). Experiments were performed with duplicate samples and were repeated at least three times. Values shown are mean±SEM of all experiments.
All cells were cultured in a 5% CO2 atmosphere at 37° C. MM6 cells were grown in RPMI supplemented with 10% BCS, 2 mM L-glutamine, and 50 μg/ml gentamicin (RPMI+10% BCS). In some experiments, MM6 cells were rinsed once with HBSS without Ca^++ or Mg^++ and once with AIM-V before finally being resuspended in AIM-V supplemented with 0.01% BCS (AIM-V+0.01% BCS). […] AIM-V was supplemented with a low amount of BCS (0.01%) in order to provide a source of LPS-binding protein, which enhances the response of monocytic cells to LPS. […] HL-60, REH, and Jurkat were cultured in RPMI supplemented with 10% heat inactivated fetal bovine serum (FBS), 2 mM L-glutamine, and 50 μg/ml gentamicin. ECV304 were cultured in M199 supplemented with 10% FBS, mM L-glutamine, and 50 μg/ml gentamicin. GM5387 was cultured in MEM supplemented with 20% FBS, 2 mM L-glutamine, and 50 μg/ml gentamicin.
For induction of TF or TNFα expression, MM6 cells or PBMC were cultured either in RPMI supplemented with 10% BCS or in AIM-V+0.01% BCS, and stimulated by adding LPS to final concentrations of 10 to 100 ng/ml. […] Except as noted, taurolidine and LPS were added to the cell cultures simultaneously. For TF determination, cells and culture media together were treated by adding Triton X-100 (1% final) and EDTA (7 mmol/L final), and the resulting lysates assayed by ELISA. […] For TNFα determination, cells were removed by centrifugation for 5 min at 250×g, and the supernatants were assayed by ELISA.

The next assay deals with MM6 cells. Briefly: trypan blue exclusion, MM6. The class given is cell-based, human. As for the experimental part: FIG. 4A and FIG. 4B are graphs depicting cell viability and growth rates following taurolidine treatment as determined by assay procedures. MM6 cells were treated with taurolidine as described in FIG. 3. After aliquots were collected for the lactate dehydrogenase (LDH) assay, the remainder of the culture was rinsed in Hank's balanced salt solution (HBSS) and resuspended in RPMI+10% BCS without taurolidine. Counts of trypan blue-negative cells represented in FIG. 4A and total cell number represented in FIG. 4B were recorded daily thereafter (with the measurement at Day 1 being made immediately after the four hour taurolidine treatment). Conditions were no treatment (open squares); 50 μg/ml taurolidine (closed squares); 25 μg/ml taurolidine (open circles); and vehicle alone (closed circles). Cells were subcultured when they reached a concentration of 6×10^5 cells/ml. Data are mean±SEM of three experiments.
FIGS. 5A and 5B depict cell viability and growth rates for MM6 cell line following taurolidine treatment, in terms of % trypan blue negative cells and % cell number, respectively. Cells were treated with various concentrations of taurolidine for 4 hours in AIM-V+0.01% BCS. After aliquots were collected for LDH assay, the remainder of the culture was rinsed in HBSS and resuspended in RPMI+10% BCS without taurolidine. Counts of trypan blue-negative cells (FIG. 5A), and total cell number (FIG. 5B), were recorded daily thereafter (with the measurement at Day 1 being made immediately after the 4 hour taurolidine treatment). […] Doubling times were determined under each condition, and expressed as a percentage of the rate of doubling of untreated cells. […]
In these experiments, integrity of cell membranes following taurolidine treatment was assessed by exclusion of trypan blue and by measuring the release of LDH in MM6, K-562, HL-60, and REH cells. […] A parallel aliquot of cells was lysed by three cycles of freeze/thaw and the quantity of LDH released was taken to be 100%. […]

As to `O=S1(=O)CCN(CN2CCS(=O)(=O)NC2)CN1` [taurolidine, 4,4'-methylenebis(perhydro-1,2,4-thiadiazin 1,1-dioxide)], the “inhibition of LPS-induced TF expression” value in the assay on tissue factor (TF) (MM6, taurolidine 50 μg/ml or higher) was “completely blocked”; in the assay on tissue factor (TF) (MM6, taurolidine 10 or 25 μg/ml), “little or no effect”. Moreover, in the assay on tissue factor (TF) (PBMC, MM6 and granulocytes, LPS-induced), the “induction of TF expression (summary)” value is given as “blocked”. Besides, in the assay on MM6 cells (Homo sapiens, MM6, 50 μg/ml taurolidine for 4 h, untreated and vehicle 5%, read-out: trypan blue-positive cells on the day following treatment (Day 2)), the cytotoxicity at 50 µg/mL was 65%. For the same compound, the “trypan blue staining after treatment” value in the assay with MM6 cells (MM6, 25 μg/ml taurolidine) is given as “did not show an increase in trypan blue staining”. Also, the “trypan blue exclusion immediately after treatment (Day 1)” value in the assay with MM6 cells (MM6, taurolidine-treated 4 h, versus control) is on record as “equally able to exclude trypan blue”.
